Values joined by “and” are separate entries in the source; they are usually repeats but may differ in a detail not shown here. Identical values can stand only once. Square brackets hold non-standard residues; d marks the D form. * marks the point of attachment. Phe(4-Cl) = N[C@@H](Cc1ccc(Cl)cc1)C(=O)O; ACC = NC(=O)Cc1cc(=O)oc2cc(N*)ccc12; hPhe = N[C@@H](CCc1ccccc1)C(=O)O; Cha = N[C@@H](CC1CCCCC1)C(=O)O; AMC = Cc1cc(=O)oc2cc(N*)ccc12; hLeu = CC(C)CC[C@H](N)C(=O)O; hSer = N[C@@H](CCO)C(=O)O; Nle = CCCC[C@H](N)C(=O)O; Nva = CCC[C@H](N)C(=O)O; Cbz = O=C(OCc1ccccc1)*; OBn = c1ccc(CO*)cc1; Bn = c1ccc(C*)cc1
Legend:
Assay in all cases: Substrate hydrolysis kinetics (kcat, KM, kcat/KM) of ACC-labeled substrates
Type in all cases: biochemical
[1] = target: T1, human recombinant cathepsin B (Homo sapiens, UniProt P07858); settings: for kcat/KM Cat B: cathepsin B 0.3–0.5 nM, 100 mM sodium acetate, 100 mM NaCl, 10 mM DTT, 1 mM EDTA, Michaelis–Menten, average of at least triplicate; for kcat/KM Cat B / kcat Cat B / Km: pH 5.5, 37 °C, S.D. below 15%; for kcat Cat B / Km: four independent experiments; for Km: read-out: KM Cat B
T1 construct: made in house
Protocol: (§1) All kinetic experiments were performed using a CLARIOStar (BMG LABTECH) plate reader operating in fluorescence kinetic mode using 96-well plates (Corning®, Costar®). ACC-labeled fluorescent substrates were screened at 355 nm (excitation) and 460 nm (emission) wavelengths (gain 650). The cathepsin assay buffer was composed of 100 mM sodium acetate, 100 mM sodium chloride, 10 mM DTT, 1 mM EDTA, pH 5.5. All kinetic studies were performed at 37 °C.
(§2) The kinetic parameters for all ACC-labeled substrates were determined using Michaelis–Menten kinetic according to the protocol described by Poreba et al.[41] […] All experiments were performed at least in triplicate and the results are presented as average values (S.D. for all tested substrates was below 15%).

[2] = target: T2, human recombinant cathepsin K (Homo sapiens, UniProt P43235); settings: pH 5.5, 37 °C, S.D. below 15%; for kcat/KM Cat K: cathepsin K 320 nM, Michaelis–Menten, average of at least triplicate; for kcat Cat K / Km: four independent experiments; for Km: read-out: KM Cat K
T2 construct: with a 100 nM final concentration of each active cathepsin for 30 min; made in house
T2 sequence (P43235 115-329): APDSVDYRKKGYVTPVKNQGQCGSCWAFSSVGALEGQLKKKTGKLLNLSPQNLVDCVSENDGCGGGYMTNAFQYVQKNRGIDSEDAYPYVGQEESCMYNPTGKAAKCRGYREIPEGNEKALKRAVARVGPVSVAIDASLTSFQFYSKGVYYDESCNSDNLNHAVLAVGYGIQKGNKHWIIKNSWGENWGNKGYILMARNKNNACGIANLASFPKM
Protocol: as §1, §2

[3] = target: T3, human recombinant cathepsin L (Homo sapiens, UniProt P07711); settings: pH 5.5, 37 °C, S.D. below 15%; for kcat/KM Cat L: cathepsin L 250 nM, Michaelis–Menten, average of at least triplicate; for kcat Cat L / Km: four independent experiments; for Km: read-out: KM Cat L
T3 construct: with a 100 nM final concentration of each active cathepsin for 30 min; made in house
T3 sequence (P07711 114-333): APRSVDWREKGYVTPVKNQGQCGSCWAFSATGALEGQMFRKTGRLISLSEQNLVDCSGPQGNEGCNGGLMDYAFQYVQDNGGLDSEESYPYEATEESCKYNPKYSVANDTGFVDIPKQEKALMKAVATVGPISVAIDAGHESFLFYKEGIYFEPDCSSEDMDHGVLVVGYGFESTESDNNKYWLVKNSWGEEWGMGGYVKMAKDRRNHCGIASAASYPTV
Protocol: as §1, §2

[4] = target: T4, human recombinant cathepsin S (Homo sapiens, UniProt P25774); settings: pH 5.5, 37 °C, S.D. below 15%; for kcat/KM Cat S: cathepsin S 150 nM, Michaelis–Menten, average of at least triplicate; for kcat Cat S / Km: four independent experiments; for Km: read-out: KM Cat S
T4 construct: with a 100 nM final concentration of each active cathepsin for 30 min; made in house
T4 sequence (P25774 115-331): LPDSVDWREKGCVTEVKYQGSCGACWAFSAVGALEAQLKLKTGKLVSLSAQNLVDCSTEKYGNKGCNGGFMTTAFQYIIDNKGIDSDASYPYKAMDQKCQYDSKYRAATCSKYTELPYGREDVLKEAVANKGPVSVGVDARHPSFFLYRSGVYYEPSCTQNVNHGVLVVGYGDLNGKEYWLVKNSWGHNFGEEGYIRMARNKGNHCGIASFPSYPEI
Protocol: as §1, §2

[5] = target: T5, human recombinant cathepsin V (Homo sapiens, UniProt O60911); settings: pH 5.5, 37 °C, S.D. below 15%; for kcat/KM Cat V: cathepsin V 200 nM, Michaelis–Menten, average of at least triplicate; for kcat Cat V / Km: four independent experiments; for Km: read-out: KM Cat V
T5 construct: with a 100 nM final concentration of each active cathepsin for 30 min; made in house
T5 sequence (O60911 114-334): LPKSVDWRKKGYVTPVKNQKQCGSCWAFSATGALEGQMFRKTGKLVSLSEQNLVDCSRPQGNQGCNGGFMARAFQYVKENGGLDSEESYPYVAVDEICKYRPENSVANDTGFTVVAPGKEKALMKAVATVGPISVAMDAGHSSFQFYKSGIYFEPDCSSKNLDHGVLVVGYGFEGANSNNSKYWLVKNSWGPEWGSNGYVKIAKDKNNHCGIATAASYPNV
Protocol: as §1, §2

Substance	kcat/KM Cat B [1]	selectivity for cathepsin B in comparison with cathepsin S ([1]; from kcat/KM)	kcat Cat B [1]	Km [1]	kcat/KM Cat K [2]	kcat Cat K [2]	Km [2]	kcat/KM Cat L [3]	kcat Cat L [3]	Km [3]	kcat/KM Cat S [4]	kcat Cat S [4]	Km [4]	kcat/KM Cat V [5]	kcat Cat V [5]	Km [5]	selectivity for cathepsin B over cathepsin L ([1]; from kcat/KM)
Ac-[Cha]LE(OBn)R-{ACC} (SMILES CC(=O)N[C@@H](CC1CCCCC1)C(=O)N[C@@H](CC(C)C)C(=O)N[C@@H](CCC(=O)OCc1ccccc1)C(=O)N[C@@H](CCCNC(=N)N)C(=O)Nc1ccc2c(CC(N)=O)cc(=O)oc2c1)	3,100,000 M^-1s^-1	~60 000 fold	344 s⁻¹	115 µM	14 M⁻¹ s⁻¹	< 0.007 s⁻¹	> 500 µM	744 M⁻¹ s⁻¹	0.062 s⁻¹	83.5 µM	40 M⁻¹ s⁻¹	< 0.020 s⁻¹	> 500 µM	949 M⁻¹ s⁻¹	0.034 s⁻¹	35.1 µM	–
Ac-[Cha]L[hSer](Bn)R-{ACC} (SMILES CC(=O)N[C@@H](CC1CCCCC1)C(=O)N[C@@H](CC(C)C)C(=O)N[C@@H](CCOCc1ccccc1)C(=O)N[C@@H](CCCNC(=N)N)C(=O)Nc1ccc2c(CC(N)=O)cc(=O)oc2c1) [ACC-labeled tetrapeptide substrate]	4,300,000 M^-1s^-1	–	390 s⁻¹	90.9 µM	14 M⁻¹ s⁻¹	< 0.007 s⁻¹	> 500 µM	1,040 M^-1s^-1	0.109 s⁻¹	105 µM	44 M⁻¹ s⁻¹	< 0.022 s⁻¹	> 500 µM	518 M⁻¹ s⁻¹	0.055 s⁻¹	109 µM	–
Ac-[Nva][Cha]E(OBn)R-{ACC} (SMILES CCC[C@H](NC(C)=O)C(=O)N[C@@H](CC1CCCCC1)C(=O)N[C@@H](CCC(=O)OCc1ccccc1)C(=O)N[C@@H](CCCNC(=N)N)C(=O)Nc1ccc2c(CC(N)=O)cc(=O)oc2c1) [ACC-labeled tetrapeptide substrate]	4,090,000 M^-1s^-1	–	–	–	30 M⁻¹ s⁻¹	–	–	1,140 M^-1s^-1	–	–	37 M⁻¹ s⁻¹	–	–	1,420 M^-1s^-1	–	–	–
Ac-[Phe(4-Cl)]L[hSer](Bn)R-{ACC} (SMILES CC(=O)N[C@@H](Cc1ccc(Cl)cc1)C(=O)N[C@@H](CC(C)C)C(=O)N[C@@H](CCOCc1ccccc1)C(=O)N[C@@H](CCCNC(=N)N)C(=O)Nc1ccc2c(CC(N)=O)cc(=O)oc2c1) [ACC-labeled tetrapeptide substrate]	3,780,000 M^-1s^-1	–	–	–	12 M⁻¹ s⁻¹	–	–	1,540 M^-1s^-1	–	–	50 M⁻¹ s⁻¹	–	–	570 M⁻¹ s⁻¹	–	–	–
Ac-[hLeu][Nle]E(OBn)R-{ACC} (SMILES CCCC[C@H](NC(=O)[C@H](CCC(C)C)NC(C)=O)C(=O)N[C@@H](CCC(=O)OCc1ccccc1)C(=O)N[C@@H](CCCNC(=N)N)C(=O)Nc1ccc2c(CC(N)=O)cc(=O)oc2c1) [ACC-labeled tetrapeptide substrate]	3,450,000 M^-1s^-1	–	–	–	17 M⁻¹ s⁻¹	–	–	1,090 M^-1s^-1	–	–	96 M⁻¹ s⁻¹	–	–	1,180 M^-1s^-1	–	–	–
Ac-[hLeu][Nle][hSer](Bn)R-{ACC} (SMILES CCCC[C@H](NC(=O)[C@H](CCC(C)C)NC(C)=O)C(=O)N[C@@H](CCOCc1ccccc1)C(=O)N[C@@H](CCCNC(=N)N)C(=O)Nc1ccc2c(CC(N)=O)cc(=O)oc2c1) [ACC-labeled tetrapeptide substrate]	–	–	–	–	16 M⁻¹ s⁻¹ and 19 M⁻¹ s⁻¹	–	–	–	–	–	65 M⁻¹ s⁻¹ and 39 M⁻¹ s⁻¹	–	–	–	–	–	–
Ac-[hPhe]LE(OBn)R-{ACC} (SMILES CC(=O)N[C@@H](CCc1ccccc1)C(=O)N[C@@H](CC(C)C)C(=O)N[C@@H](CCC(=O)OCc1ccccc1)C(=O)N[C@@H](CCCNC(=N)N)C(=O)Nc1ccc2c(CC(N)=O)cc(=O)oc2c1) [ACC-labeled tetrapeptide substrate]	2,100,000 M^-1s^-1	–	–	–	12 M⁻¹ s⁻¹	–	–	726 M⁻¹ s⁻¹	–	–	37 M⁻¹ s⁻¹	–	–	829 M⁻¹ s⁻¹	–	–	–
Cbz-Arg-Arg-{AMC} [reference compound]	–	–	–	–	–	–	–	–	–	–	–	–	–	–	–	–	17 fold

Reference: paper PMC6839509, “Fluorescent probes towards selective cathepsin B detection and visualization in cancer cells and patient samples” (Chemical Science, 2019)
